From patent EP0934746B1, “SUBSTANCE IN THE FORM OF AN AQUEOUS EXTRACT OF VEGETAL RAW MATERIAL FOR TREATING ONCOLOGICAL DISEASES, AND METHOD FOR PRODUCING THE SAME” (Gosudarstvenny Nauchny Tsentr Rossiiskoi Federatsii …, priority 1996, dated 1998)

Tests used:
[1] = tested on: lipid peroxidation processes (LPP) in murine liver homogenate; experiment: Antioxidant activity: inhibition of lipid peroxidation processes (LPP) in liver homogenate, thiobarbituric acid colour reaction; assay type: biochemical, BDF-1 (nondescript) mice; conditions: conventional unit = quantity required for 50% inhibition of LPP; 3 h at 37°C
Experimental: The antioxidant activity of the extracts was determined from the ability of a sample to inhibit the lipid peroxidation processes (LPP) in murine liver homogenate.
The antioxidant activity was used by using a method based on the ability of the sample being investigated to inhibit LPP processes in murine liver homogenate. The liver of BDF-1 (nondescript) mice was homogenized in a glass homogenizer and then centrifugated. The liver homogenate was introduced in an amount of 5-6 mg of protein per assay. The volume of the assay was brought to 0.5 ml with a solution of the sample being tested for the antioxidant activity. The assays were incubated for 3 h at 37°C.
The concentration of the LPP products was determined from the color reaction with thiobarbituric acid. The quantity of the antioxidant required for the 50% inhibition of LPP was adopted as a conventional unit of the sample under investigation.

Lymphoid leukemia L1210 = experiment: Influence of extract samples on curative effect of DDP in L1210 leukemia (TGI, LI); assay type: in vivo, mice BDF1; conditions: for TGI, % days 4: day 4; for TGI, % days 6: day 6; for TGI, % days 8: day 8; for LI, %: lifetime increase
Experimental: In addition, the effect of the extracts on the therapeutic activity of the cytostatic cis-dichlorodiamine platinum (DDP) was estimated.
Lymphoid leukemia L1210 was inoculated to BDF1 males in a sterile physiologic salt solution, 3x10^6 cells in 0.2 ml volume. The day of the inoculation was regarded as the zero day of tumor growth. The extract samples and DDP were administered in the doses and under the conditions specified in Tables 4, 5.
Treatment of the animals was started 24 hours after the tumor inoculation, control animals were administered a physiologic salt solution instead of the vegetable extracts. The antitumoric effect was estimated from the tumor growth inhibition (TGI) calculated from theformula: TGI = [(Vcontrol - Vexperiment)/Vcontrol]x100%; [formula] mean lifetime (ML), lifetime increase (LI) calculated from the formula: LI = [(MLexperiment - MLcontrol)/Mlcontrol]x100%. [formula] TGI > 50%, LI > 50% were considered to be biologically significant effects.
The obtained data were processed in accordance with the Fisher-Student procedure, using statistical programs. The differences were regarded confident at p < 0.05.

[2] = tested on: cell culture of human pulmonary adenocarcinoma A-549; experiment: Cytotoxic activity in vitro: inhibition of proliferation of A-549 cell culture, colorimetric; assay type: cell-based
Experimental: The cytotoxic activity of the extracts in vitro was determined with the help of a biological test based on inhibition of the proliferation of the inoculated cell culture of human pulmonary adenocarcinoma A-549 [7].
When carrying out the cytotoxic biological test in vitro, each well of a flat-bottomed 96-well microtiter (Sarstedt, USA) was charged with 10 µl of a suspension of A549-line cells in a concentration of 1x10^5 cell/ml; 24 h later series dilutions of the vegetable preparations in the range of 1:4-1:64 were added, this corresponding to 3.0-0.1 mg/ml in the volume of 100 µl/well. The cytotoxic activity of the extracts and DDP was estimated colorimetrically. The results were expressed in the percentage of inhibition of the A-549 test-culture proliferation. The cytotoxic activity of the sample was adopted to be the maximum titer of the sample, at which the biologically significant (50%) level of inhibition of the A-549 test-culture proliferation was observed.

`O=C1O[C@H]([C@@H](O)CO)C(O)=C1O` [Ascorbic acid (vitamin C), Ascorbic acid] was tested, and the “Antioxidant activity, conv. units (1/mg)” value [1] was 12 conv. units (1/mg).

For `N.N.[Cl][Pt][Cl]` [DDP, cis-dichlorodiamine platinum], the “TGI, % days 4” value (Lymphoid leukemia L1210; DDP alone 9 mg/kg) was 100%, the “TGI, % days 6” value (Lymphoid leukemia L1210; DDP alone 9 mg/kg) was 93% and the “TGI, % days 8” value (Lymphoid leukemia L1210; DDP alone 9 mg/kg) was 33%. For the same compound, the “LI, %” value (Lymphoid leukemia L1210; DDP alone 9 mg/kg) was 41%, the “TGI, % days 4” value (Lymphoid leukemia L1210; DDP alone 10 mg/kg) was 100% and the “TGI, % days 6” value (Lymphoid leukemia L1210; DDP alone 10 mg/kg) was 87%. For the same compound, the “TGI, % days 8” value (Lymphoid leukemia L1210; DDP alone 10 mg/kg) was 65%, the “LI, %” value (Lymphoid leukemia L1210; DDP alone 10 mg/kg) was 32% and the “Inhibition, %” value ([2]; A-549 proliferation, at the titer/concentration in the column beside it) was 68%. For the same compound, the “Maximum titer (as concentration)” value ([2]; DDP control) was 10 µg/mL and the “ability to inhibit proliferation of the cell culture A-549” value ([2]; at the concentration of 0.01 mg/ml) was 68%.

For `CC1=C(/C=C/C(C)=C/C=C/C(C)=C/C=C/C=C(C)/C=C/C=C(C)/C=C/C2=C(C)CCCC2(C)C)C(C)(C)CCC1` [β-Carotene], the “Antioxidant activity, conv. units (1/mg)” value [1] was 6 conv. units (1/mg).

In the case of “Retinol acetate [Retinol acetate (vitamin A)]”, the “Antioxidant activity, conv. units (1/mg)” value [1] was 83 conv. units (1/mg).
